Experimental data taken from ChEMBL document CHEMBL4043275, “Design, synthesis and biological evaluation of phthalimide-alkylamine derivatives as balanced multifunctional cholinesterase and monoamine oxidase-B inhibitors for the treatment of Alzheimer's disease” (Bioorg Med Chem Lett, 2017).
Calls of active or inactive are those of the source. The rule behind the calls is not given here.

Tests used:
[1] = target: Acetylcholinesterase (Electrophorus electricus, UniProt O42275); assay: Inhibition of electric eel AChE using acetylthiocholine chloride as substrate incubated for 15 mins by Ellman's method
[2] = target: Cholinesterase (Equus caballus, UniProt P81908); assay: Inhibition of equine serum BChE using butyrylthiocholine chloride as substrate incubated for 15 mins by Ellman's method
[3] = Selectivity index, ratio of IC50 for equine serum BChE to IC50 for electric eel AChE
[4] = target: T1, Acetylcholinesterase (Rattus norvegicus, UniProt P37136); assay: Inhibition of rat cortex homogenate AChE using acetylthiocholine chloride as substrate incubated for 15 mins by Ellman's method
T1 sequence (P37136 whole entry): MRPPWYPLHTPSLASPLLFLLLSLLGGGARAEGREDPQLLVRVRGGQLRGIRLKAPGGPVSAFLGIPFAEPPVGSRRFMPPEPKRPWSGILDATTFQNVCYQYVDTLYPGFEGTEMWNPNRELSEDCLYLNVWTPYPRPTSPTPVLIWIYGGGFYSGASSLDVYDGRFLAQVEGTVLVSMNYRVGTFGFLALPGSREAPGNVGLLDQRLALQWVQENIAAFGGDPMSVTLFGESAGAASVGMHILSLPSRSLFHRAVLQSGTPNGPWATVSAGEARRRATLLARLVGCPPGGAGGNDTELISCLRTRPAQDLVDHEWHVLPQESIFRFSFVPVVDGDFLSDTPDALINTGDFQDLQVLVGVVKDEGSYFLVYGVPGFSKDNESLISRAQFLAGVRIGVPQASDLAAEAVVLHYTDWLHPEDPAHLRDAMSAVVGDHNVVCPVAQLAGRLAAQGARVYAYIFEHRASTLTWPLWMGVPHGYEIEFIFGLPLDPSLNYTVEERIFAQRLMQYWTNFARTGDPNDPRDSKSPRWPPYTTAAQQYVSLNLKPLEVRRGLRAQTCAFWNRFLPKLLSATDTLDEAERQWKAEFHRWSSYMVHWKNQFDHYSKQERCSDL

[5] = target: Butyrylcholinesterase (Rattus norvegicus, UniProt Q9JKC1); assay: Inhibition of rat serum BChE using butyrylthiocholine chloride as substrate incubated for 15 mins by Ellman's method
[6] = target: Acetylcholinesterase (Homo sapiens, UniProt P22303); assay: Inhibition of human erythrocyte AChE using acetylthiocholine chloride as substrate incubated for 15 mins by Ellman's method
[7] = target: Cholinesterase (Homo sapiens, UniProt P06276); assay: Inhibition of human serum BChE using butyrylthiocholine chloride as substrate incubated for 15 mins by Ellman's method
[8] = target: T2, Amine oxidase [flavin-containing] B (Homo sapiens, UniProt P27338); assay: Inhibition of human recombinant MAO-B expressed in baculovirus infected BTI insect cells using kynuramine as substrate after 30 mins by fluorescence assay; type: cell-based
T2 sequence (P27338 whole entry): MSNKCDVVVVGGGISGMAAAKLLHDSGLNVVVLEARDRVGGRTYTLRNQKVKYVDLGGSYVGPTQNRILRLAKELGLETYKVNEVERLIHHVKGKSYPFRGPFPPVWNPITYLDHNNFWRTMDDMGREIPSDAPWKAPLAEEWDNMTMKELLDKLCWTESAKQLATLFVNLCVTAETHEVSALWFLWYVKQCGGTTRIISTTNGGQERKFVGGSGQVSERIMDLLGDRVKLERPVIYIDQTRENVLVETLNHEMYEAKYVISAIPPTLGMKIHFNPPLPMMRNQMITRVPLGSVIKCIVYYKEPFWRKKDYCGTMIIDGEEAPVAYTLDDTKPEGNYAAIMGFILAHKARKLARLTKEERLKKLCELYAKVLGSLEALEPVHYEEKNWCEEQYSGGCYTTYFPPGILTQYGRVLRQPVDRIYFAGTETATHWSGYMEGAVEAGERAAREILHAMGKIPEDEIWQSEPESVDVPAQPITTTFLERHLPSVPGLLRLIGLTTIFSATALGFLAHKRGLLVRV

[9] = target: T3, Amine oxidase [flavin-containing] A (Homo sapiens, UniProt P21397); assay: Inhibition of human recombinant MAO-A expressed in baculovirus infected BTI insect cells at 20 uM using kynuramine as substrate after 30 mins by fluorescence assay relative to control; details: 0.5 h
T3 sequence (P21397 whole entry): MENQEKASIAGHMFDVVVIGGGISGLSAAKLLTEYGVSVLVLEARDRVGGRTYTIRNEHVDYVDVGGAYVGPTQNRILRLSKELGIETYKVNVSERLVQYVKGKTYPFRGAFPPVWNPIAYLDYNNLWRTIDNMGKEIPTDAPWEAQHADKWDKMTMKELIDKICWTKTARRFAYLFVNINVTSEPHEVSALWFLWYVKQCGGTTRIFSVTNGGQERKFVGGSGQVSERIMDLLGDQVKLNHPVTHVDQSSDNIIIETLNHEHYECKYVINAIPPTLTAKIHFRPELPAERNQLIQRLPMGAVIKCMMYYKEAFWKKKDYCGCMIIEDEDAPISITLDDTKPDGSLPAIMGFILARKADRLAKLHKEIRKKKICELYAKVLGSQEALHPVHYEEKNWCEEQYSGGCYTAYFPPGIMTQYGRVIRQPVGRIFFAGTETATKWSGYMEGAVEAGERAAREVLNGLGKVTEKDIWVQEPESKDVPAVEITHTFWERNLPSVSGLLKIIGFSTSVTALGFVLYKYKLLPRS

[10] = target: Acetylcholinesterase (Electrophorus electricus) (UniProt O42275); assay: Mixed-type inhibition of electric eel AChE at 0.5 to 2 uM using acetylthiocholine chloride as substrate by Lineweaver-Burk plot analysis
[11] = tested on: SH-SY5Y; assay: Cytotoxicity against human SH-SY5Y cells assessed as decrease in cell viability up to 10 uM after 24 hrs by MTT assay; type: cell-based
[12] = tested on: SH-SY5Y; assay: Cytotoxicity against human SH-SY5Y cells assessed as decrease in cell viability at 100 uM after 24 hrs by MTT assay; type: cell-based
[13] = Effective permeability of the compound at 100 ug/ml by PAMPA-BBB assay
[14] = target: Acetylcholinesterase (Electrophorus electricus) (UniProt O42275); assay: Inhibition of electric eel AChE at 50 uM using acetylthiocholine chloride as substrate incubated for 15 mins by Ellman's method relative to control
[15] = target: Cholinesterase (Equus caballus) (UniProt P81908); assay: Inhibition of equine serum BChE at 50 uM using butyrylthiocholine chloride as substrate incubated for 15 mins by Ellman's method relative to control
[16] = target: T4, Acetylcholinesterase (Rattus norvegicus) (UniProt P37136); assay: Inhibition of rat cortex homogenate AChE at 50 uM using acetylthiocholine chloride as substrate incubated for 15 mins by Ellman's method relative to control
T4 sequence (whole entry): T1 sequence (P37136 whole entry)

[17] = target: Butyrylcholinesterase (Rattus norvegicus) (UniProt Q9JKC1); assay: Inhibition of rat serum BChE at 50 uM using butyrylthiocholine chloride as substrate incubated for 15 mins by Ellman's method relative to control
Butyrylcholinesterase (Rattus norvegicus), sequence (Q9JKC1 as listed by the source): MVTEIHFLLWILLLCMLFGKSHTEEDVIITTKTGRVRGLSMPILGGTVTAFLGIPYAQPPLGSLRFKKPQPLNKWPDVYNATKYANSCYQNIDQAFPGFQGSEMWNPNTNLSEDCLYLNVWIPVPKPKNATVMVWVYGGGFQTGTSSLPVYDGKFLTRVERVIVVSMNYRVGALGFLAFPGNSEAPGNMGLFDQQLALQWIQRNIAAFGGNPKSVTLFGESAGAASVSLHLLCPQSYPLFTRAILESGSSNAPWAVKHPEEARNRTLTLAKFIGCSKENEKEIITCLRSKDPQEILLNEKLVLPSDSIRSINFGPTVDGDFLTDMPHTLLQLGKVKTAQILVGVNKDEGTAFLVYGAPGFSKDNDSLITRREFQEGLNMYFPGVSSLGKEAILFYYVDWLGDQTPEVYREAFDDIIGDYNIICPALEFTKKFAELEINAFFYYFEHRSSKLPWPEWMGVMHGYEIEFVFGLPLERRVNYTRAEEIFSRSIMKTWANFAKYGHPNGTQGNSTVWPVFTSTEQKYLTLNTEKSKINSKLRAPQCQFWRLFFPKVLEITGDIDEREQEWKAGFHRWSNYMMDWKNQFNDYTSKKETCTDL

Acetylcholinesterase (Electrophorus electricus), sequence (O42275 24-633 limits assumed): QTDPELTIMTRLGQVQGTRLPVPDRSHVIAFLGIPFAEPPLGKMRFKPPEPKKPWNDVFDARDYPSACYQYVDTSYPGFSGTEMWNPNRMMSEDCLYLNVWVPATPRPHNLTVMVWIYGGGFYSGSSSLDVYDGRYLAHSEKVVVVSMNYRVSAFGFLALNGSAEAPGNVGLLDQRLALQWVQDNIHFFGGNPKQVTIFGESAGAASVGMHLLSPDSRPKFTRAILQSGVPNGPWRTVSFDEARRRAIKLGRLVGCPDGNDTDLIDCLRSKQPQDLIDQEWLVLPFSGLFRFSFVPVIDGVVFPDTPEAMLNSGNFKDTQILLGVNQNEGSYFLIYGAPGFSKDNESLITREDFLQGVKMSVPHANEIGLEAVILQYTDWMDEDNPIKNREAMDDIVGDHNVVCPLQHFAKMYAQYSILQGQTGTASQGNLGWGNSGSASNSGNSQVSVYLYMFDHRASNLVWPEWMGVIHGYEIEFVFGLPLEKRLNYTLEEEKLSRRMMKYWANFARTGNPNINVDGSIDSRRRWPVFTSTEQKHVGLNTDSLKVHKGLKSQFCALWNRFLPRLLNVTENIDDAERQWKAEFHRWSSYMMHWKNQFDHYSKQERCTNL
Cholinesterase (Equus caballus), sequence (P81908 whole entry): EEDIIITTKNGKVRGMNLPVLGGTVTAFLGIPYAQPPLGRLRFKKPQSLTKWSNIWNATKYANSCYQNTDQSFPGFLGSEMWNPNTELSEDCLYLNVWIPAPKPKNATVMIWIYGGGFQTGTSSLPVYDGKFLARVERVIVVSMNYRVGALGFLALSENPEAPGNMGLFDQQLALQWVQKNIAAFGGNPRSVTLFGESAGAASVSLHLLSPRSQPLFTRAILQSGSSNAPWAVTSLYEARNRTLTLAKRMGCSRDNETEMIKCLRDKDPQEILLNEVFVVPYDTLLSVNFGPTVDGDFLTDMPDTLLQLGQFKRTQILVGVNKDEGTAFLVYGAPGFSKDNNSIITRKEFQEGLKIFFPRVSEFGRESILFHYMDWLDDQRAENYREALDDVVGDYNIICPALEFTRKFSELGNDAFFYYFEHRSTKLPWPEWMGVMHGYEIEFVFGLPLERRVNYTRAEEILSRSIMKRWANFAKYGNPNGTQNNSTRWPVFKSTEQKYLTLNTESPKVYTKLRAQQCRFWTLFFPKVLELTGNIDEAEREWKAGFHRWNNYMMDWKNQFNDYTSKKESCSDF
Cholinesterase (Equus caballus, UniProt P81908), sequence (P81908 whole entry): as above
Butyrylcholinesterase, sequence (Q9JKC1 whole entry): as the sequence (Q9JKC1 as listed by the source) above
Acetylcholinesterase (Electrophorus electricus, UniProt O42275), sequence (O42275 whole entry): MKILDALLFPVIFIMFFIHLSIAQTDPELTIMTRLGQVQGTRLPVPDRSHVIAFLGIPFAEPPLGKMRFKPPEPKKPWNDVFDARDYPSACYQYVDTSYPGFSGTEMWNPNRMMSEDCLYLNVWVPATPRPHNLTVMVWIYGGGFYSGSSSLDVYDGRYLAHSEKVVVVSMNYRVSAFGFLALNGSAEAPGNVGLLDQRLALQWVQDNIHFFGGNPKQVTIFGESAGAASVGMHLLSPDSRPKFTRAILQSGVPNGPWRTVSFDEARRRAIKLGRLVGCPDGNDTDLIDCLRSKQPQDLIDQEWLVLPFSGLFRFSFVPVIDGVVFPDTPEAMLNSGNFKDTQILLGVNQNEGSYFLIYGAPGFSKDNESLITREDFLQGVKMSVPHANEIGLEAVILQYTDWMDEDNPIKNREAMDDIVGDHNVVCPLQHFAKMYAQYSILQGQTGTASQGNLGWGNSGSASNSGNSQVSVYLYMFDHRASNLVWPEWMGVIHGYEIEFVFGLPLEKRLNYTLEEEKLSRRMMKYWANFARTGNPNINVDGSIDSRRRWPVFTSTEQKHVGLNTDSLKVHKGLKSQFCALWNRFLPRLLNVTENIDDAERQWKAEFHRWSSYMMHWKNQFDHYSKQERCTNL
Cholinesterase (Homo sapiens, UniProt P06276), sequence (P06276 whole entry): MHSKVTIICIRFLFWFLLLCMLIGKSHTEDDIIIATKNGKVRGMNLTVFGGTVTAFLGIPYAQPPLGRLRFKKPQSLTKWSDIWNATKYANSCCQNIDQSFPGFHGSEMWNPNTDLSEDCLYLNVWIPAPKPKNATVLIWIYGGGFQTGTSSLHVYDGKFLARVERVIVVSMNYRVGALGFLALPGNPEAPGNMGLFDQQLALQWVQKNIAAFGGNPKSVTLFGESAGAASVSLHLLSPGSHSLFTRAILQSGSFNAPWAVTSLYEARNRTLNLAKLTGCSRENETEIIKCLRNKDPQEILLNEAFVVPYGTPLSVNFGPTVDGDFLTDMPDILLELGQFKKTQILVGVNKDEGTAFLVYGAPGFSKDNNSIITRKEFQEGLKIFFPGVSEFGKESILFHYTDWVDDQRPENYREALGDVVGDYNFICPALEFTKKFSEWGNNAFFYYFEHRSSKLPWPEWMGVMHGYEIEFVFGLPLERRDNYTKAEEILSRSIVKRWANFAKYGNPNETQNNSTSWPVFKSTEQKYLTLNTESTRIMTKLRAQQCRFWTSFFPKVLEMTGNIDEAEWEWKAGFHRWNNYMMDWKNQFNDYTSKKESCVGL
Acetylcholinesterase (Homo sapiens, UniProt P22303), sequence (P22303 whole entry): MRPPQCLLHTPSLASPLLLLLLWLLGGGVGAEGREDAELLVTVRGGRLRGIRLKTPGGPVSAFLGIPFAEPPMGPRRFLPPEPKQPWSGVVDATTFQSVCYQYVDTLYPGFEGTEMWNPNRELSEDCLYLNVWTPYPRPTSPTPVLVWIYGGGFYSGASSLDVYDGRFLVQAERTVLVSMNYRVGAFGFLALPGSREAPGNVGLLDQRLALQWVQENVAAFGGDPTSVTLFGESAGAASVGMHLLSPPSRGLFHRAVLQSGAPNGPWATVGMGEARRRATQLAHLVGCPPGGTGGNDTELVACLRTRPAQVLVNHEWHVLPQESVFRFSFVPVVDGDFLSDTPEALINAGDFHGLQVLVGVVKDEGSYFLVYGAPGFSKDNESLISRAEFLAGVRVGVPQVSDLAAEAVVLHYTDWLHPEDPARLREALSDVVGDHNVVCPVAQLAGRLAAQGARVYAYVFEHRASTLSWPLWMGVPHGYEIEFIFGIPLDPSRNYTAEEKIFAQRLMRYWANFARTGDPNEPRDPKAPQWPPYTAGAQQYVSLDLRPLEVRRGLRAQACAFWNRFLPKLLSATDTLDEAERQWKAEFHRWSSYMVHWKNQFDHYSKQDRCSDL

Row | Structure (SMILES) | IC50 [1] [µM] | IC50 [2] [µM] | Ratio IC50 [3] | IC50 [4] [µM] | IC50 [5] [µM] | IC50 [6] [µM] | IC50 [7] [µM] | IC50 [8] [µM] | inhibition at 20 µM [9] [%] | inhibition [10] | Activity [11] | Activity [12] [%] | Papp at 100 ug/ml [13] [×10⁻⁶ cm/s] | inhibition [14] [%] | inhibition [15] [%] | inhibition [16] [%] | inhibition [17] [%]
1 | C#CCN(CCCN1C(=O)c2ccccc2C1=O)Cc1ccccc1 | 0.84 | 2.5 | 3 | 0.27 | 2.2 | 1.2 | 3.8 | 2.6 | < 5 | Active | Non-Toxic | 86.7 | 26 |  |  |  | 
2 | O=C1NC(=O)c2ccccc21 |  |  |  |  |  |  |  |  |  |  |  |  |  | < 5 | < 5 | < 5 | < 5
